Measurements reported in patent publication US12528814B2, “Bifunctional degraders of interleukin-1 receptor-associated kinases and therapeutic use thereof” (NURIX THERAPEUTICS, INC., priority 2020, dated 2026).
Read-outs that look alike come from different tables or passages of the source.

Key:
IRAK4 [1] = molecular target: T1, IRAK4 (Homo sapiens (Human), UniProt Q9NWZ3); experiment: IRAK4 Degradation HiBiT Assay; settings: HiBiT-tagged Jurkat cells, 4 hrs; for Dmax: Jurkat; for DC50: read-out: Cellular IRAK4 HiBiT: DC50
Target sequence in this assay (Q9NWZ3 whole entry): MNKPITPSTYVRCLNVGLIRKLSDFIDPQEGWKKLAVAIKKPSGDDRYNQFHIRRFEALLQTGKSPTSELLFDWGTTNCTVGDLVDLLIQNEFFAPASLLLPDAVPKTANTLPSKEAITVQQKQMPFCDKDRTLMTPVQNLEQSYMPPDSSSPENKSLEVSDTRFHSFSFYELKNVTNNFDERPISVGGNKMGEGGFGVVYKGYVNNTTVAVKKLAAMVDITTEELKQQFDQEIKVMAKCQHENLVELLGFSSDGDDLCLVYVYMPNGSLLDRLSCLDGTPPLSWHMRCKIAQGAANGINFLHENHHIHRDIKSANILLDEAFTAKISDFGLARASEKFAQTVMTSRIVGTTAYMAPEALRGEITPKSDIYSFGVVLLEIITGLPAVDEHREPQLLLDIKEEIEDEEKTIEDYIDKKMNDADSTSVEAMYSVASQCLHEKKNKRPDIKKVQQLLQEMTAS

IRAK4 [2] = molecular target: T1, IRAK4; experiment: IRAK4 Biochemical HTRF Kinase Assay; settings: read-out: IRAK4 HTRF biochemical: IC50
Outline: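 IC50 values derive from non-linear regression of sixteen concentrations in duplicate. Kinase reaction ran 90 min at ambient temperature after adding 5 μM STK-S1 substrate, 10 mM ATP and 10 mM MgCl2 (reaction-solution levels, pre-dilution to 10 μl); phospho-peptide detected by HTRF after 60 min.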
Target sequence in this assay (Q9NWZ3 whole entry, species assumed): as the sequence (Q9NWZ3 whole entry) above

[3] = read-out: Cellular IRAK4 HiBiT: Dmax, Table 5, multiple runs
[4] = read-out: Cellular IRAK4 HiBiT: Dmax, Table 4

| Dmax (IRAK4 [1]; [3]) | DC50 (IRAK4 [1]; Table 5, multiple runs) | IC50 (IRAK4 [2]; Table 5, multiple runs) | Dmax (IRAK4 [1]; [4]) | DC50 (IRAK4 [1]; Table 4) | IC50 (IRAK4 [2]; Table 4) | SMILES |
| --- | --- | --- | --- | --- | --- | --- |
| 115% | 356 nM | 1.2 nM |  |  |  | CNc1cc(-c2ccc3cc(C#N)cnn23)ncc1-c1nnc(C23CCC(NC(=O)CCOCCC(=O)N[C@H](C(=O)N4C[C@H](O)C[C@H]4C(=O)NCc4ccc(-c5scnc5C)cc4)C(C)(C)C)(CC2)CC3)s1 [Example 129] |
|  | > 9980 nM | 0.8 nM |  |  |  | CNc1cc(-c2ccc3cc(C#N)cnn23)ncc1-c1nnc(C2CCC(NC(=O)C[C@H](NC(=O)[C@@H]3C[C@@H](O)CN3C(=O)[C@@H](NC(=O)C3(F)CC3)C(C)(C)C)c3ccccc3)CC2)s1 (stereo partly drawn) [Example 149, (2S,4R)—N—((S)-3-(((1r,4S)-4-(5-(6-(3-cyanopyrrolo[1,2-b]pyridazin-7-yl)-4-(methylamino)pyridin-3-yl)-1,3,4-thiadiazol-2-yl)cyclohexyl)amino)-3-oxo-1-phenylpropyl)-1-((S)-2-(1-fluorocyclopropane-1-carboxamido)-3,3-dimethylbutanoyl)-4-hydroxypyrrolidine-2-carboxamide] |
| 108% | 19.1 nM | 22.6 nM |  |  |  | CNc1cc(-c2ccc3cc(C#N)cnn23)ncc1-c1nnc([C@H]2CC[C@H](N(C)C(=O)CN3CCN(c4ccc5c(c4)C(=O)N(C4CCC(=O)NC4=O)C5=O)CC3)CC2)s1 (stereo partly shown) [Example 137, N-((1r,4r)-4-(5-(6-(3-cyanopyrrolo[1,2-b]pyridazin-7-yl)-4-(methylamino)pyridin-3-yl)-1,3,4-thiadiazol-2-yl)cyclohexyl)-2-(4-(2-(2,6-dioxopiperidin-3-yl)-1,3-dioxoisoindolin-5-yl)piperazin-1-yl)-N-methylacetamide] |
| 95% | 88.3 nM | 0.9 nM |  |  |  | CNc1cc(-c2ccc3cc(C#N)cnn23)ncc1-c1nnc(N2CCN(CCC3CCN(c4ccc5c(c4)C(=O)N(C4CCC(=O)NC4=O)C5=O)CC3)CC2)s1 (stereo not shown) [Example 187, 7-(5-(5-(4-(2-(1-(2-(2,6-dioxopiperidin-3-yl)-1,3-dioxoisoindolin-5-yl)piperidin-4-yl)ethyl)piperazin-1-yl)-1,3,4-thiadiazol-2-yl)-4-(methylamino)pyridin-2-yl)pyrrolo[1,2-b]pyridazine-3-carbonitrile] |
| 85% | 326 nM | 2 nM | 85% | 326 nM | 2 nM | CC(C)Nc1cc(-c2ccc3cc(C#N)cnn23)ncc1-c1nnc(N2CCN(CC3CCN(c4ccc(C(=O)N(C)C5CCC(=O)NC5=O)cc4)CC3)CC2)s1 (stereo not shown) [Example 34, 4-(4-((4-(5-(6-(3-cyanopyrrolo[1,2-b]pyridazin-7-yl)-4-(isopropylamino)pyridin-3-yl)-1,3,4-thiadiazol-2-yl)piperazin-1-yl)methyl)piperidin-1-yl)-N-(2,6-dioxopiperidin-3-yl)-N-methylbenzamide] |
| 111% | 51.4 nM | 0.9 nM |  |  |  | CNc1cc(-c2ccc3cc(C#N)cnn23)ncc1-c1nnc([C@H]2CC[C@@H](NC(=O)C3CCN(c4ccc5c(c4)C(=O)N(C4CCC(=O)NC4=O)C5=O)CC3)CC2)s1 (stereo partly shown) [Example 133, N-((1s,4s)-4-(5-(6-(3-cyanopyrrolo[1,2-b]pyridazin-7-yl)-4-(methylamino)pyridin-3-yl)-1,3,4-thiadiazol-2-yl)cyclohexyl)-1-(2-(2,6-dioxopiperidin-3-yl)-1,3-dioxoisoindolin-5-yl)piperidine-4-carboxamide] |
| 101% | 160 nM | 0.9 nM | 89% | 163 nM | 0.93 nM | CNc1cc(-c2ccc3cc(C#N)cnn23)ncc1-c1nnc([C@H]2CC[C@H](NC(=O)CCCC(=O)N[C@H](C(=O)N3C[C@H](O)C[C@H]3C(=O)NCc3ccc(-c4scnc4C)cc3)C(C)(C)C)CC2)s1 [Example 59, N1-((1r,4S)-4-(5-(6-(3-cyanopyrrolo[1,2-b]pyridazin-7-yl)-4-(methylamino)pyridin-3-yl)-1,3,4-thiadiazol-2-yl)cyclohexyl)-N5-((S)-1-((2S,4R)-4-hydroxy-2-((4-(4-methylthiazol-5-yl)benzyl)carbamoyl)pyrrolidin-1-yl)-3,3-dimethyl-1-oxobutan-2-yl)glutaramide] |
|  | > 9980 nM | 702 nM | 33% | > 10000 nM | 702 nM | Cc1ncsc1-c1ccc(CNC(=O)[C@@H]2C[C@@H](O)CN2C(=O)[C@@H](NC(=O)C2(F)CC2)C(C)(C)C)c(OCCCCCCCCCC(=O)N2CCN(c3nnc(-c4cnc(-c5ccc6cc(C#N)cnn56)cc4NC(C)C)s3)CC2)c1 [Example 44, (2S,4R)—N-(2-((10-(4-(5-(6-(3-cyanopyrrolo[1,2-b]pyridazin-7-yl)-4-(isopropylamino)pyridin-3-yl)-1,3,4-thiadiazol-2-yl)piperazin-1-yl)-10-oxodecyl)oxy)-4-(4-methylthiazol-5-yl)benzyl)-1-((S)-2-(1-fluorocyclopropane-1-carboxamido)-3,3-dimethylbutanoyl)-4-hydroxypyrrolidine-2-carboxamide] |
| 49% | 109 nM | 1.8 nM |  |  |  | CNc1cc(-c2ccc3cc(C#N)cnn23)ncc1-c1nnc(N2CCN(C3CCN(Cc4ccc(C(=O)NC5CCC(=O)NC5=O)cc4)CC3)CC2)s1 (stereo not shown) [Example 145, 4-((4-(4-(5-(6-(3-cyanopyrrolo[1,2-b]pyridazin-7-yl)-4-(methylamino)pyridin-3-yl)-1,3,4-thiadiazol-2-yl)piperazin-1-yl)piperidin-1-yl)methyl)-N-(2,6-dioxopiperidin-3-yl)benzamide] |
| 114% | 15.1 nM | 0.5 nM |  |  |  | CC(C)Nc1cc(-c2ccc3cc(C#N)cnn23)ncc1-c1nnc(N2CCN(C3CCN(C(=O)c4ccc5c(c4)C(=O)N(C4CCC(=O)NC4=O)C5)CC3)CC2)s1 (stereo not shown) [Example 77, 7-(5-(5-(4-(1-(2-(2,6-dioxopiperidin-3-yl)-3-oxoisoindoline-5-carbonyl)piperidin-4-yl)piperazin-1-yl)-1,3,4-thiadiazol-2-yl)-4-(isopropylamino)pyridin-2-yl)pyrrolo[1,2-b]pyridazine-3-carbonitrile] |
| 119% | 691 nM | 4 nM | 119% | 691 nM | 4 nM | Cc1ncsc1-c1ccc(CNC(=O)[C@@H]2C[C@@H](O)CN2C(=O)[C@@H](NC(=O)C2(F)CC2)C(C)(C)C)c(OCCOCCOCCOCCOCCOCCC(=O)N2CCN(c3nnc(-c4cnc(-c5ccc6cc(C#N)cnn56)cc4NC(C)C)s3)CC2)c1 [Example 48, (2S,4R)—N-(2-((18-(4-(5-(6-(3-cyanopyrrolo[1,2-b]pyridazin-7-yl)-4-(isopropylamino)pyridin-3-yl)-1,3,4-thiadiazol-2-yl)piperazin-1-yl)-18-oxo-3,6,9,12,15-pentaoxaoctadecyl)oxy)-4-(4-methylthiazol-5-yl)benzyl)-1-((S)-2-(1-fluorocyclopropane-1-carboxamido)-3,3-dimethylbutanoyl)-4-hydroxypyrrolidine-2-carboxamide] |
| 96% | 17.1 nM | 0.3 nM |  |  |  | CNc1cc(-c2ccc3cc(C#N)cnn23)ncc1-c1nnc(N2CCC(N3CCN(C(=O)c4ccc5c(c4)C(=O)N(C4CCC(=O)NC4=O)C5=O)CC3)CC2)s1 (stereo not shown) [Example 186, 7-(5-(5-(4-(4-(2-(2,6-dioxopiperidin-3-yl)-1,3-dioxoisoindoline-5-carbonyl)piperazin-1-yl)piperidin-1-yl)-1,3,4-thiadiazol-2-yl)-4-(methylamino)pyridin-2-yl)pyrrolo[1,2-b]pyridazine-3-carbonitrile] |
| 116% | 65.5 nM | 0.8 nM |  |  |  | CNc1cc(-c2ccc3cc(C#N)cnn23)ncc1-c1nnc([C@H]2CC[C@H](NC(=O)C3CN(C4CCN(c5ccc6c(c5)C(=O)N(C5CCC(=O)NC5=O)C6=O)CC4)C3)CC2)s1 (stereo partly shown) [Example 138, N-((1r,4r)-4-(5-(6-(3-cyanopyrrolo[1,2-b]pyridazin-7-yl)-4-(methylamino)pyridin-3-yl)-1,3,4-thiadiazol-2-yl)cyclohexyl)-1-(1-(2-(2,6-dioxopiperidin-3-yl)-1,3-dioxoisoindolin-5-yl)piperidin-4-yl)azetidine-3-carboxamide] |
| 82% | 28.9 nM | 2.5 nM |  |  |  | CC(C)Nc1cc(-c2ccc3cc(C#N)cnn23)ncc1-c1nnc(N2CCN(C3CCN(C(=O)CNc4cccc5c4C(=O)N(C4CCC(=O)NC4=O)C5=O)CC3)CC2)s1 (stereo not shown) [Example 74, 7-(5-(5-(4-(1-((2-(2,6-dioxopiperidin-3-yl)-1,3-dioxoisoindolin-4-yl)glycyl)piperidin-4-yl)piperazin-1-yl)-1,3,4-thiadiazol-2-yl)-4-(isopropylamino)pyridin-2-yl)pyrrolo[1,2-b]pyridazine-3-carbonitrile] |

| SMILES | Dmax (IRAK4 [1]; [3]) | DC50 (IRAK4 [1]; Table 5, multiple runs) | IC50 (IRAK4 [2]; Table 5, multiple runs) | Dmax (IRAK4 [1]; [4]) | DC50 (IRAK4 [1]; Table 4) | IC50 (IRAK4 [2]; Table 4) |
| --- | --- | --- | --- | --- | --- | --- |
| CN[C@@H](C)C(=O)N[C@H](C(=O)N1C[C@@H](NC(=O)CCCCCCCCCCC(=O)N2CCN(c3nnc(-c4cnc(-c5ccc6cc(C#N)cnn56)cc4NC(C)C)s3)CC2)C[C@H]1C(=O)N[C@@H]1CCCc2ccccc21)C1CCCCC1 [Example 53, (2S,4S)-4-(12-(4-(5-(6-(3-cyanopyrrolo[1,2-b]pyridazin-7-yl)-4-(isopropylamino)pyridin-3-yl)-1,3,4-thiadiazol-2-yl)piperazin-1-yl)-12-oxododecanamido)-1-((S)-2-cyclohexyl-2-((S)-2-(methylamino)propanamido)acetyl)-N—((R)-1,2,3,4-tetrahydronaphthalen-1-yl)pyrrolidine-2-carboxamide] | 82% | 8750 nM | 5.8 nM | 48% | 993 nM | 5.8 nM |
